Experimental data taken from patent US20050059694A1, “New use of 11.28-dioxa-4-azatricyclo [22.3.1.04,9] octacos-18-ene derivatives and pharmaceutical compositions containing them” (Fujisawa Pharmaceutical Co., Ltd., priority 1987, published 2005).
Values after ≈ are worked out from the molar mass of the structure shown.

Key:
TPA-induced dermatitis = TPA-induced dermatitis (mouse), topical administration; assay type: in vivo, NMRI mice; conditions: dimethylacetamide/acetone/ethanol (2/4/4), pinna weight difference 6 hours after irritant
Protocol: 2. Determination of the Activity after Topical Administration In the Irritant-Induced Dermatitis Model (Mouse) 2.1 TPA-induced Dermatitis: Skin irritation with TPA in test animals is a method for testing substances as to their antiinflammatory activity after local application (Maibach, Lowe, Ed. Models in Dermatology, Vol. 3 [1987] p. 86-92, Karger-Basel). NMRI mice are given 10 μl of a TPA solution on the inner and outer side of the right pinna (2×10 μl/mouse=2×0.5 μg TPA/mouse). The left pinnae remain untreated. Treatment is effected 30 min. after irritation, by application of 2×10 μl of test solution onto the irritated ear surfaces, as described above. The evaluation of the test group is performed by comparison with a group where the right pinna has been treated with only the irritating solution and with the solvent used for the test substance. 6 hours after application of the irritant the animals are killed, the pinnae separated and weighted. The difference in weight of the two pinnae is used for the evaluation, whereby the individual differences of the test groups are statistically compared with the individual differences of the control groups (as under 1.1.). The activity of the test substances is indicated in % on the basis of the average values. The solvent used is a mixture of dimethylacetamide, acetone and ethanol (2/4/4): […]

human keratinocytes = assay: Inhibition of proliferation of human keratinocytes; assay type: cell-based
Protocol: 5. Inhibition of proliferation of human keratinocytes
Cultures of human keratinocytes are obtained by trypsination of human foreskin from newborns or obtained as to EpiPack from Clonetics Corp. (San Diego). The keratinocyte cultures are grown in culture flasks in a supplemented keratinocyte medium (KGM). The passages 3 to 5 of 80-90% confluent keratinocytes are resuspended in KGM at a concentration of 1×10^5 cells/ml, and either 0.1 ml each of this cell suspension is added into a 96-vells microtiter plate or 1 ml each of this cell suspension are added into a 24-wells plate in the presence of test substance. The cells are grown for 48 hours at 37° and 5% CO2. ^3H-thymidine is incorporated during the last 16 hours (microtiter plate, 1 μCi/well), the cells are checked for their morphology, washed thrice with ice-cold, deficient PBS and twice with trichloroacetic acid, solubilized in 100 μl 0.1 N NaOH containing 1% SDS, and the radioactivity is measured. Alternatively, cells from the 24-well plate are trypsinized (trypsin/EDTA), checked for viability by trypan blue exclusion, and triple aliquots are counted in a cell counter.

[1] = test system: dermatitis induced by croton oil; assay: Dermatitis induced by croton oil (mouse), topical administration; assay type: in vivo, NMRI mice; conditions: dissolved in irritant solution, pinna weight difference 6 hours after irritant
Protocol: 2. Determination of the Activity after Topical Administration In the Irritant-Induced Dermatitis Model (Mouse) 2.2. Dermatitis Induced by Croton Oil Croton oil is often used, as TPA, in order to induce an irritant-induced dermatitis on which substances can be tested for their anti-inflammatory activity (Maibach, Love, Ed., Models in Dermatology, Vol. 3[1987]p. 86-92, Karger-Basel). NMRI-mice are given 15 μl of 0.23% croton oil (in a mixture of dimethylacetamide, acetone and ethanol 2/4/4) on the inner side of the right pinna. Treatment is effected simultaneously with the irritation, the test substance being dissolved in the solution of irritant applied at the auricular test site. Evaluation of the test group is performed by comparison of the inflammation with a group receiving only the irritant solution on the pinna. The animals are killed 6 hours after application of the irritant, the pinnae separated and weighted. The difference between the weights of the two individual pinnae is used for evaluation, by statistical comparison of the single differences in the test group with the single differences in the control group (as under 1.1.). The activity of the test substances is indicated in % based on average values.

[2] = test system: human polymorphonuclear neutrophil leukocytes; assay: Inhibition of FMLP-stimulated oxidative burst (chemiluminescence) in PMNL; assay type: cell-based; conditions: minimal inhibiting concentration with significant inhibition of all 3 chemiluminescence parameters; FMLP stimulus
Protocol: (§1) 3. Inhibition of the Oxidative Burst in Human Polymorphonuclear neutrophil leukocytes (inhibition of FMLP—or, respectively, A 23187-stimulated chemiluminescence):
(§2) Polymorphonuclear leukocytes (PMNL) are prepared from human peripheral blood (M. Schaude et al., Mycoses 31 (5) [1988]259-267). Stock solutions of the test substances (500 mg/l) are freshly prepared on the day of experiment in 5% DMSO/RPMI 1640. For the determination of the chemiluminescence (CL) with Biolumat LB 9505 the luminescence indicator DMNH is used. […] The CL-reaction is started by addition of either 100 μl of the peptide FMLP (4×10^−6 M) or of the calcium ionophor A 23187 (4×10^−6 M). […] 3 parameters are used for evaluation of the results: peak intensity of the radiated light, time span up to the peak and surface area under the reaction curve. As minimal inhibiting concentration the concentration of test substance is chosen where a significant inhibition of all 3 parameters can be observed (Table 4).

DNFB contact allergy = assay: DNFB allergy (swine), topical administration; assay type: in vivo; conditions: 5% preparation (solution in 15% dimethylformamide, 42.5% ethanol, 42.5% propylenglycol), applied topically 4 times
Protocol: On the 1st and 3rd day 100 μl each of a 10% DNFB preparation is applied onto the inner surface of the right and, respectively, left thigh. On the 14th day each swine is marked on the right and the left side of the back with circular markings of 5 cm in diameter (8 markings per animal) and 150 μl each of a 0.5% DNFB preparation is applied thereon. The substances are tested either in the form of galenical compositions or of a solution. The carriers are used in each case as placebo controls.
The test products are carefully applied 4 times (first 30 minutes, then 6, 24 and 32 hours after release of the challenge reaction). Prior to each application the test areas are evaluated with respect to reddenning, swelling and consistance. The coloration of the test areas is then determined quantitatively with a reflectometer, repeatedly. From the data on brightness (L*) and saturation (C*) the erythema index is computed according to the following formula: 100−L*×C*. The mean erythema index is a reflection of the activity according to the following formula: [formula]

[3] = test system: TPA-induced PGE2 release from macrophages; assay: Inhibition of macrophage activation (TPA-induced PGE2 release); assay type: cell-based, NMRI mice; conditions: PGE2 release from TPA-stimulated mouse peritoneal macrophages
Protocol: 4. Inhibition of Macrophage Activation (Inhibition of TPA-induced PGE2 release)
Peritoneal exudate cells of NMRI mice pretreated 3 days earlier with 1.5 ml thioglycolate i.p. are harvested by peritoneal lavage, washed with deficient PBS and resuspended in DMEM medium supplemented with 10% FCS. 1×10^6 cells are transferred to each well of a 24-wells plate, and the cells are left to adhere 4 hours at 37° and 5% CO2. The cells are then washed twice with deficient PBS. The resultant, more than 95% pure macrophage population is stimulated with TPA ([…]) in DMEM-medium devoid of FCS. The conditioned media are centrifuged and the PGE2-contents determined using a ^125I-radioimmunotest. PGE2-release inhibition with the test substances is measured as percentage inhibition compared to the controls.

[4] = test system: human polymorphonuclear neutrophil leukocytes; assay: Inhibition of A 23187-stimulated oxidative burst (chemiluminescence) in PMNL; assay type: cell-based; conditions: minimal inhibiting concentration with significant inhibition of all 3 chemiluminescence parameters; calcium ionophor A 23187 stimulus
Protocol: as §1, §2

[5] = test system: oxazolone allergy (allergic contact dermatitis, DTH-reaction); assay: Oxazolone allergy (mouse), topical administration; assay type: in vivo; conditions: ethanol as solvent, pinna weight difference 24 hours after second exposure
Protocol: 1. Determination of the activity after topical administration in models of allergic or allergen-induced contact dermatitis (DTH-reaction) 1.1. Oxazolone Allergy (Mouse): 10 μl of a 2% oxazolone solution are applied onto the abdominal skin of mice for sensitization, 8 days later a second exposure with 10 μl of a 2% oxazolone solution is performed by application on the peripheral internal surface of the pinna. 20 minutes and 2 hours after the second exposure has released the challenge reaction, the test solution is applied at the site of the second exposure. Evaluation of the inhibition of inflammation with the test substance is effected by reference to an untreated group treated with the solvent used for dissolving the test substance, alone. 24 hours after the second exposure the animals are killed and the separated pinnae are weighted. The difference in weight between the two pinnae is used for evaluation; the individual differences in the test group and in the solvent control group are statistically compared (by simple variance analysis with subsequent Dunnet test by normal distribution test if normally distributed, otherwise by […] and Wilcoxon-Mann-Whitney's U-test). The activity of the test substance is indicated in %, based on mean values. […] Ethanol is used as solvent.

| Compound | % inhibition (TPA-induced dermatitis; 1.2 % concentration) [%] | % inhibition (TPA-induced dermatitis; 3.6 % concentration) [%] | % inhibition ([1]; 0.4 % concentration) [%] | % inhibition ([1]; 1.2 % concentration) [%] | % inhibition ([1]; 3.6 % concentration) [%] | MIC (μM) (FMLP) [2] [µM] | inhibition at 1 µM [3] [%] | MIC (μM) (A 23187) [4] [µM] | % inhibition ([5]; 0.005 % concentration) [%] | also measured |
| --- | --- | --- | --- | --- | --- | --- | --- | --- | --- | --- |
| C=CC[C@@H]1/C=C(\C)C[C@H](C)C[C@H](OC)[C@H]2O[C@@](O)(C(=O)C(=O)N3CCCC[C@H]3C(=O)O[C@H](/C(C)=C/[C@@H]3CC[C@@H](O)[C@H](OC)C3)[C@H](C)[C@@H](O)CC1=O)[C@H](C)C[C@@H]2OC [Compound A, 17-Allyl-1,14-dihydroxy-12-[2-(4-hydroxy-3-methoxycyclo-hexyl)-1-methylvinyl]-23,25-dimethoxy-13,19,21,27-tetramethyl-11,28-dioxa-4-azatricyclo[22.3.1.0^4,9]octacos-18-ene-2,3,10,16-tetraone] | 52 | 56 | 52 | 64 | 85 | 0.005 (≈ 0.00402 µg/mL) | 30 | 0.05 (≈ 0.0402 µg/mL) | 52 | inhibition at 0.5 µM (human keratinocytes; Homo sapiens, Keratinocyte, 0.5 μM, 48 hours, read-out: % inhibition compared to control): 57%; inhibition at 1 µM (human keratinocytes; Homo sapiens, Keratinocyte, 1 μM, 48 hours, read-out: % inhibition compared to control): 74%; inhibition at 5 µM (human keratinocytes; Homo sapiens, Keratinocyte, 5 μM, 48 hours, read-out: % inhibition compared to control): 94%; reduction in proliferation (human keratinocytes; concentration range from 0.5 to 5 μM): dose-dependent reduction in proliferation; clinical evaluation of the test sites / activity (DNFB contact allergy): the treated areas can hardly be distinguished from the adjacent normal skin; % inhibition ([5]; 0.0005 % concentration): 35%; % inhibition ([5]; 0.002 % concentration): 38%; % inhibition ([5]; 0.01 % concentration): 65%; % inhibition ([5]; 0.13 % concentration): 65% |
| CCCC1C=C(C)CC(C)CC(OC)C2OC(O)(C(=O)C(=O)N3CCCCC3C(=O)OC(C(C)=CC3CCC(O)C(OC)C3)C(C)C(O)CC1=O)C(C)CC2OC (stereo not shown) [Compound B, 1,14-dihydroxy-12-[2-(4-hydroxy-3-methoxycyclohexyl)-1-methylvinyl]-23,25-dimethoxy-13,19,21,27-tetramethyl-17-propyl-11,28-dioxa-4-azatricyclo[22.3.1.0^4,9]octacos-18-ene-2,3,10,16-tetraone] | – | – | – | – | – | 0.01 (≈ 0.00806 µg/mL) | 60 | 0.01 (≈ 0.00806 µg/mL) | 60 | – |
| C=CCC1C=C(C)CC(C)CC(OC)C2OC(O)(C(=O)C(=O)N3CCCCC3C(=O)OC(C(C)=CC3CCC(O)C(OC)C3)C(C)C=CC1=O)C(C)CC2OC (stereo not shown) [Compound C, 17-allyl-1-hydroxy-12-[2-(4-hydroxy-3-methoxycyclohexyl)-1-methylvinyl]-23,25-dimethoxy-13,19,21,27-tetramethyl-11,28-dioxa-4-azatricyclo[22.3.1.0^4,9]octacosa-14,18-diene-2,3,10,16-tetraone] | – | – | – | – | – | 0.5 (≈ 0.393 µg/mL) | 60 | 5 (≈ 3.93 µg/mL) | – | – |
| C=CCC1C=C(C)CC(C)CC(OC)C2OC(O)(C(=O)C(=O)N3CCCCC3C(=O)OC(C(C)=CC3CCC(OC(C)=O)C(OC)C3)C(C)C(OC(C)=O)CC1=O)C(C)CC2OC (stereo not shown) [Compound D, 14-acetoxy-12-[2-(4-acetoxy-3-methoxycyclohexyl)-1-methylvinyl]-17-allyl-1-hydroxy-23,25-dimethoxy-13,19,21,27-tetramethyl-11,28-dioxa-4-azatricyclo[22.3.1.0^4,9]octacos-18-ene-2,3,10,16-tetraone] | – | – | – | – | – | <0.5 | – | 0.5 (≈ 0.444 µg/mL) | – | – |
| C=CCC1C=C(C)CC(C)CC(OC)C2OC(O)(C(=O)C(=O)N3CCCCC3C(=O)OC(C(C)=CC3CCC(OC(C)=O)C(OC)C3)C(C)C(O)CC1=O)C(C)CC2OC (stereo not shown) [Compound E, 12-[2-(4-acetoxy-3-methoxycyclohexyl)-1-methylvinyl]-17-allyl-1,14-dihydroxy-23,25-dimethoxy-13,19,21,27-tetramethyl-11,28-dioxa-4-azatricyclo[22.3.1.0^4,9]octacos-18-ene-2,3,10,16-tetraone] | – | – | – | – | – | <0.5 | – | 0.05 (≈ 0.0423 µg/mL) | – | – |
| COc1ccc2c(c1)c(CC(=O)O)c(C)n2C(=O)c1ccc(Cl)cc1 [Indomethacin, reference compound] | 26 | 31 | 11 | 63 | 96 | – | – | – | – | – |
